# Data: US20110207723A1, “NOVEL FUSED AMINODIHYDROTHIAZINE DERIVATIVE” (EISAI R&D MANAGEMENT CO., LTD., priority 2008, published 2011)
# pIC50: −log10 of the molar value.
# Test system: Aβ42 production
# Test: Quantification of Aβ peptide in culture of neurons from rat fetus brain (Aβ42 ELISA)
# Format: cell-based
# Conditions: Neuron, 72 h, rat primary neuronal culture (embryonic day 18 Wistar rat cerebral cortex), medium collected three days after addition of compound, read-out: Aβ42 production reducing effect IC50
# Description: Quantification of Aβ Peptide in Culture of Neurons from Rat Fetus Brain
# Primary neuronal cultures were prepared from the cerebral cortex of embryonic day 18 Wistar rats (Charles River Japan, Yokohama, Japan). Specifically, the embryos were aseptically removed from pregnant rats under ether anesthesia. The brain was isolated from the embryo and immersed in an ice-cold L-15 medium (such as Invitrogen Corp. Cat #11415-064, Carlsbad, Calif., USA, or SIGMA L1518). The cerebral cortex was collected from the isolated brain under a stereoscopic microscope. The cerebral cortex fragments collected were enzymatically treated in an enzyme solution containing 0.25% trypsin (Invitrogen Corp. Cat #15050-065, Carlsbad, Calif., USA) and 0.01% DNase (Sigma D5025, St. Louis, Mo., USA) at 37° C. for 30 minutes to disperse the cells. Here, the enzymatic reaction was stopped by adding inactivated horse serum to the solution. The enzymatically treated solution was centrifuged at 1,500 rpm for five minutes to remove the supernatant. 5 to 10 ml of a medium was added to the resulting cell mass. Neurobasal medium (Invitrogen Corp. Cat #21103-049, Carlsbad, Calif., USA) supplemented with 2% B27 supplement (Invitrogen Corp. Cat #17504-044, Carlsbad, Calif., USA), 25 μM 2-mercaptoethanol (2-ME, WAKO Cat #139-06861, Osaka, Japan), 0.5 mM L-glutamine (Invitrogen Corp. Cat #25030-081, Carlsbad, Calif., USA), and Antibiotics-Antimycotics (Invitrogen Corp. Cat #15240-062, Carlsbad, Calif., USA) was used as the medium (Neurobasal/B27/2-ME). However, the above Neurobasal medium not supplemented with 2-ME (Neurobasal/B27) was used for the assay. The cells were redispersed by mild pipetting of the cell mass to which the medium was added. The cell dispersion was filtered through a 40-μm nylon mesh (Cell Strainer, Cat #35-2340, Becton Dickinson Labware, Franklin Lakes, N.J., USA) to remove the remaining cell mass, and thus a neuronal cell suspension was obtained. The neuronal cell suspension was diluted with the medium and then plated in a volume of 100 μl/well at an initial cell density of 5×10^5 cells/cm^2 in a 96-well polystyrene culture plate pre-coated with poly-L or D-lysine (Falcon Cat #35-3075, Becton Dickinson Labware, Franklin Lakes, N.J., USA coated with poly-L-lysine using the method shown below, or BIOCOAT™ cell environments Poly-D-lysine cell ware 96-well plate, Cat #35-6461, Becton Dickinson Labware, Franklin Lakes, N.J., USA). Poly-L-lysine coating was carried out as follows. 100 μg/ml of a poly-L-lysine (SIGMA P2636, St. Louis, Mo., USA) solution was aseptically prepared with a 0.15 M borate buffer (pH 8.5). […] of the solution was added to the 96-well polystyrene culture plate and incubated at room temperature for one or more hours or at 4° C. overnight or longer. Thereafter, the coated 96-well polystyrene culture plate was washed with sterile water four or more times, and then dried or rinsed with, for example, sterile PBS or medium, and used for cell plating. The plated cells were cultured in the culture plate at 37° C. in 5% CO2-95% air for one day. Then, the total amount of the medium was replaced with a fresh Neurobasal/B27/2-ME medium, and then the cells were cultured for further three days.
# The drug was added to the culture plate on Day 4 of culture as follows. The total amount of the medium was removed from the wells, and 180 μl/well of Neurobasal medium not containing 2-ME and containing 2% B-27 (Neurobasal/B27) was added thereto. A solution of the test compound in dimethyl sulfoxide (hereinafter abbreviated as DMSO) was diluted with Neurobasal/B27 to a concentration 10-fold higher than the final concentration. 20 μl/well of the dilution was added to and sufficiently mixed with the medium. The final DMSO concentration was 1% or less. Only DMSO was added to the control group.
# The cells were cultured for three days after addition of the compound, and the total amount of the medium was collected. […]
row,Compound,pIC50
1,"NC1=N[C@@]2(c3cc(NC(=O)c4ccc(OC(F)F)cn4)ccc3F)COC[C@@H](F)[C@H]2CS1 [Example 20, N-[3-((4aS,5S,8aS)-2-amino-5-fluoro-4,4a,5,6-tetrahydro-7-oxa-3-thia-1-azanaphthalen-8a-yl)-4-fluorophenyl]-5-difluoromethoxypyridine-2-carboxamide]",8.05
2,"COC[C@H]1C[C@H]2CSC(N)=N[C@@]2(c2cc(NC(=O)c3cnc(C(F)F)cn3)ccc2F)CO1 (relative stereo) [Example 12, N-[3-((4aR*,6R*,8aS*)-2-amino-6-methoxymethyl-4,4a,5,6-tetrahydro-7-oxa-3-thia-1-azanaphthalen-8a-yl)-4-fluorophenyl]-5-difluoromethylpyrazine-2-carboxamide]",8.96
3,"NC1=N[C@@]2(c3cc(NC(=O)c4ccc(Cl)cn4)ccc3F)COCC[C@H]2CS1 (single isomer, unassigned) [Example 49, N-[3-((4aR*,8aS*)-2-amino-4,4a,5,6-tetrahydro-7-oxa-3-thia-1-azanaphthalen-8a-yl)-4-fluorophenyl]-5-chloropyridine-2-carboxamide]",8.70
4,"NC1=N[C@@]2(c3cc(NC(=O)c4ccc(Cl)cn4)ccc3OC(F)(F)F)COCC[C@H]2CS1 (single isomer, unassigned) [Example 5, N-[3-((8S*,8aS*)-2-amino-4,4a,5,6-tetrahydro-7-oxa-3-thia-1-azanaphthalen-8a-yl)-4-trifluoromethoxyphenyl]-5-chloropyridine-2-carboxamide]",7.24
5,"NC1=N[C@@]2(c3cc(NC(=O)c4ccc(C(F)(F)F)cn4)ccc3F)COCC[C@H]2CS1 (single isomer, unassigned) [Example 55, N-[3-((4aR*,8aS*)-2-amino-4,4a,5,6-tetrahydro-7-oxa-3-thia-1-azanaphthalen-8a-yl)-4-fluorophenyl]-5-trifluoromethylpyridine-2-carboxamide]",8.85
6,"NC1=N[C@@]2(c3cc(NC(=O)c4cnc(OC(F)F)cn4)ccc3F)COCC[C@H]2CS1 (relative stereo) [Example 3, N-[3-((4aR*,8aS*)-2-amino-4,4a,5,6-tetrahydro-7-oxa-3-thia-1-azanaphthalen-8a-yl)-4-fluorophenyl]-5-difluoromethoxypyrazine-2-carboxamide]",9.00
7,"NC1=N[C@@]2(c3cc(NC(=O)c4cnc(C(F)F)cn4)ccc3F)COC[C@@H](F)[C@H]2CS1 [Example 17, N-[3-((4aS,5S,8aS)-2-amino-5-fluoro-4,4a,5,6-tetrahydro-7-oxa-3-thia-1-azanaphthalen-8a-yl)-4-fluorophenyl]-5-difluoromethylpyrazine-2-carboxamide]",8.40
8,"C[C@@H]1COC[C@]2(c3cc(NC(=O)c4ccc(C#N)cn4)ccc3F)N=C(N)SC[C@H]12 (relative stereo) [Example 24, N-[3-((4aR*,5S*,8aS*)-2-amino-5-methyl-4,4a,5,6-tetrahydro-7-oxa-3-thia-1-azanaphthalen-8a-yl)-4-fluorophenyl]-5-cyanopyridine-2-carboxamide]",8.05
9,"NC1=N[C@@]2(c3cc(NC(=O)c4ccc(C(F)F)cn4)ccc3F)COCC[C@H]2CS1 (single isomer, unassigned) [Example 56, N-[3-((4aR*,8aS*)-2-amino-4,4a,5,6-tetrahydro-7-oxa-3-thia-1-azanaphthalen-8a-yl)-4-fluorophenyl]-5-difluoromethylpyridine-2-carboxamide]",8.52
10,"NC1=N[C@@]2(c3cc(NC(=O)c4ncc(Br)cc4Br)ccc3F)COCC[C@H]2CS1 (single isomer, unassigned) [Example 54, N-[3-((4aR*,8aS*)-2-amino-4,4a,5,6-tetrahydro-7-oxa-3-thia-1-azanaphthalen-8a-yl)-4-fluorophenyl]-3,5-dibromopyridine-2-carboxamide]",8.70
11,"N#Cc1ccc(C(=O)Nc2ccc(F)c([C@]34CO[C@@H](CO)C[C@H]3CSC(N)=N4)c2)nc1 [Example 34, N-[3-((4aR,6R,8aS)-2-amino-6-hydroxymethyl-4,4a,5,6-tetrahydro-7-oxa-3-thia-1-azanaphthalen-8a-yl)-4-fluorophenyl]-5-cyanopyridine-2-carboxamide]",8.70
12,"C[C@H]1COC[C@]2(c3cc(NC(=O)c4cnc(OC(F)F)cn4)ccc3F)N=C(N)SC[C@H]12 (relative stereo) [Example 28, N-[3-((4aR*,5R*,8aS*)-2-amino-5-methyl-4,4a,5,6-tetrahydro-7-oxa-3-thia-1-azanaphthalen-8a-yl)-4-fluorophenyl]-5-difluoromethoxypyrazine-2-carboxamide]",8.85
13,"NC1=N[C@@]2(c3cc(NC(=O)c4ccc(F)cn4)ccc3F)CO[C@@H](C(F)(F)F)C[C@H]2CS1 (relative stereo) [Example 37, N-[3-((4aR*,6R*,8aS*)-2-amino-6-trifluoromethyl-4,4a,5,6-tetrahydro-7-oxa-3-thia-1-azanaphthlen-8a-yl)-4-fluorophenyl]-5-fluoropyriidne-2-carboxamide]",8.70
14,"C[C@H]1COC[C@]2(c3cc(NC(=O)c4ccc(C#N)cn4)ccc3F)N=C(N)SC[C@H]12 (relative stereo) [Example 27, N-[3-((4aR*,5R*,8aS*)-2-amino-5-methyl-4,4a,5,6-tetrahydro-7-oxa-3-thia-1-azanaphthalen-8a-yl)-4-fluorophenyl]-5-cyanopyridine-2-carboxamide]",8.10
15,"C[C@H]1COC[C@]2(c3cc(NC(=O)c4cnc(C(F)F)cn4)ccc3F)N=C(N)SC[C@H]12 (relative stereo) [Example 29, N-[3-((4aR*,5R*,8aS*)-2-amino-5-methyl-4,4a,5,6-tetrahydro-7-oxa-3-thia-1-azanaphthalen-8a-yl)-4-fluorophenyl]-5-difluoromethylpyrazine-2-carboxamide]",8.52
16,"NC1=N[C@@]2(c3cc(-c4cccnc4F)ccc3F)CO[C@@H](C(F)(F)F)C[C@H]2CS1 (relative stereo) [Example 59, (±)-(4aR*,6R*,8aS*)-8a-[2-fluoro-5-(2-fluoropyridin-3-yl)phenyl]-6-trifluoromethyl-4,4a,5,6,8,8a-hexahydro-7-oxa-3-thia-1-azanaphthalen-2-ylamine]",7.06
17,"N#Cc1ccc(C(=O)Nc2ccc(F)c([C@]34COCC[C@H]3CSC(N)=N4)c2)nc1 (relative stereo) [Example 1, N-[3-((4aR*,8aS*)-2-amino-4,4a,5,6-tetrahydro-7-oxa-3-thia-1-azanaphthalen-8a-yl)-4-fluorophenyl]-5-cyanopyridine-2-carboxamide]",8.77
18,"NC1=N[C@@]2(c3cc(NC(=O)c4cnc(C(F)F)cn4)ccc3F)CO[C@@H](CF)C[C@H]2CS1 [Example 48, N-[3-((4aR,6R,8aS)-2-amino-6-fluoromethyl-4,4a,5,6-tetrahydro-7-oxa-3-thia-1-azanaphthalen-8a-yl)-4-fluorophenyl]-5-difluoromethylpyrazine-2-carboxamide]",8.70
19,"NC1=N[C@@]2(c3cc(NC(=O)c4ccncn4)ccc3F)CO[C@@H](C(F)(F)F)C[C@H]2CS1 (relative stereo) [Example 40, N-[3-((4aR*,6R*,8aS*)-2-amino-6-trifluoromethyl-4,4a,5,6-tetrahydro-7-oxa-3-thia-1-azanaphthalen-8a-yl)-4-fluorophenyl]-pyrimidine-4-carboxamide]",8.70
